Results published in US7312245B2 (priority 2001, dated 2007).
Read-outs that look alike come from different tables or passages of the source.

Assays:
Assay type in all cases: in vivo
Pyricularia oryzae [1] = conditions: granules applied to water surface at 3 kg/10 ares; rice Koshihikari; inoculated 30 days after application; lesions checked after 1 week
Pyricularia oryzae [2] = conditions: spray application of wettable powder diluted to 500 ppm; rice Koshihikari 2-leaf stage; spray-inoculated with Pyricularia oryzae spores; examined after 7 days
Pyricularia oryzae [3] = conditions: nursery box treated with granules 50 g per box; rice Koshihikari; inoculated 30 days after transplantation; lesions counted after 1 week

Row | Compound | Grade of Effect (preventive value, rice blast controlling effect) (Pyricularia oryzae [1]) | Grade of Effect (preventive value, rice blast controlling effect) (Pyricularia oryzae [2]) | Grade of Effect (preventive value, rice blast controlling effect) (Pyricularia oryzae [3])
1 | Cc1ccc(COC(=O)NC(CNC(=O)c2ccc(C)cc2)C(C)C)cc1 (stereo not drawn) [compound 1050] | A (From 80% to 100%) | A (100%) | A (From 80% to 100%)
2 | CC(CNC(=O)c1ccc(C(C)(C)C)cc1)NC(=O)OC(C)C (stereo not drawn) [compound 216] | A (From 80% to 100%) | A (100%) | A (From 80% to 100%)
3 | CC(C)OC(=O)NC(CNC(=O)c1ccc(Cl)cc1)Cc1ccccc1 (stereo not drawn) [compound 290, N-(4-chlorobenzoyl)-N′-(i-propoxycarbonyl)-3-phenyl-1,2-propanediamine] | A (From 80% to 100%) | A (100%) | A (From 80% to 100%)
4 | CC(C)C(CNC(=O)c1ccc(Cl)cc1)NC(=O)OCc1ccoc1 (stereo not drawn) [compound 1138] | A (From 80% to 100%) | A (100%) | A (From 80% to 100%)
5 | Cc1ccc(C(=O)NCC(C)(NC(=O)OC(C)C)C(C)C)cc1 (stereo not drawn) [compound 245] | A (From 80% to 100%) | A (100%) | A (From 80% to 100%)
6 | Cc1ccc(C(=O)NCC(NC(=O)OC(C)C)c2ccccc2)cc1 (stereo not drawn) [compound 279] | A (From 80% to 100%) | A (100%) | A (From 80% to 100%)
7 | Cc1ccccc1C(=O)NCC(NC(=O)OC(C)C)C(C)C (stereo not drawn) [compound 239] | A (From 80% to 100%) | A (100%) | A (From 80% to 100%)
8 | Cc1ccc(C(=O)NCC(NC(=O)OC(C)(C)C)C(C)C)cc1 (stereo not drawn) [compound 464] | B (50% or more and less than 80%) | B (80% or more and less than 100%) | B (50% or more and less than 80%)
9 | C#CCOC(=O)NC(CNC(=O)c1ccc(C)cc1)C(C)C (stereo not drawn) [compound 807] | A (From 80% to 100%) | A (100%) | A (From 80% to 100%)
10 | Cc1ccc(C(=O)NCC(NC(=O)OCCS(C)(=O)=O)C(C)C)cc1 (stereo not drawn) [compound 1276] | A (From 80% to 100%) | A (100%) | A (From 80% to 100%)
11 | CC(C)C(CNC(=O)c1ccccc1)NC(=O)Oc1ccccc1 (stereo not drawn) [compound 526] | A (From 80% to 100%) | A (100%) | A (From 80% to 100%)
12 | CC(C)C(NC(=O)OC(C)(C)C)C(C)NC(=O)c1ccc(Cl)cc1 (stereo not drawn) [compound 471] | A (From 80% to 100%) | A (100%) | A (From 80% to 100%)
13 | Cc1ccc(C(=O)NC(C)C(NC(=O)OC(C)C)C(C)C)cc1 (stereo not drawn) [compound 246] | A (From 80% to 100%) | A (100%) | A (From 80% to 100%)
14 | C=CCOC(=O)NC(CNC(=O)c1ccc(Cl)cc1)C(C)C (stereo not drawn) [compound 739] | A (From 80% to 100%) | A (100%) | A (From 80% to 100%)
15 | Cc1ccc(C(=O)NC(C)C(NC(=O)OC(C)(C)C)C(C)C)cc1 (stereo not drawn) [compound 470] | A (From 80% to 100%) | A (100%) | A (From 80% to 100%)
16 | CC(C)OC(=O)NC(CNC(=O)c1ccc2ccccc2c1)C(C)C (stereo not drawn) [compound 242] | A (From 80% to 100%) | A (100%) | A (From 80% to 100%)
17 | CC(C)C(CNC(=O)c1ccc(Cl)cc1)NC(=O)OCCS(C)(=O)=O (stereo not drawn) [compound 1273] | A (From 80% to 100%) | A (100%) | A (From 80% to 100%)
18 | COC(=O)NC(CNC(=O)c1ccccc1)c1ccccc1 (stereo not drawn) [compound 66, N-(methoxycarbonyl)-N′-benzoyl-1-phenyl-1,2-ethylenediamine] | A (From 80% to 100%) | A (100%) | A (From 80% to 100%)

Row | Compound | Grade of Effect (preventive value, rice blast controlling effect) (Pyricularia oryzae [1]) | Grade of Effect (preventive value, rice blast controlling effect) (Pyricularia oryzae [2]) | Grade of Effect (preventive value, rice blast controlling effect) (Pyricularia oryzae [3])
19 | Cc1ccc(C(=O)NCC(NC(=O)OCC2CC2)C(C)C)cc1 (stereo not drawn) [compound 1186] | A (From 80% to 100%) | A (100%) | A (From 80% to 100%)
20 | CC(C)C(CNC(=O)c1ccc(Cl)cc1)NC(=O)OCC(C)(C)C (stereo not drawn) [compound 1198] | A (From 80% to 100%) | A (100%) | A (From 80% to 100%)
21 | COC(=O)NC(CNC(=O)c1ccc(C)cc1)C(C)C (stereo not drawn) [compound 30] | A (From 80% to 100%) | A (100%) | A (From 80% to 100%)
22 | COC(=O)NC(C)CNC(=O)c1ccc(Cl)cc1 (stereo not drawn) [compound 4] | A (From 80% to 100%) | A (100%) | A (From 80% to 100%)
23 | CC(C)C(CNC(=O)c1ccc(Cl)cc1)NC(=O)OCc1ccco1 (stereo not drawn) [compound 1123] | A (From 80% to 100%) | A (100%) | A (From 80% to 100%)
24 | Cc1ccc(C(=O)NCC(NC(=O)OCc2ccc(Cl)cc2)C(C)C)cc1 (stereo not drawn) [compound 1066] | A (From 80% to 100%) | A (100%) | A (From 80% to 100%)
25 | CC(C)OC(=O)NC(CNC(=O)c1ccc(Cl)cc1)C(C)C (stereo not drawn) [compound 237] | A (From 80% to 100%) | A (100%) | A (From 80% to 100%)
26 | Cc1ccc(C(=O)NCC(NC(=O)OCc2ccccc2)C(C)C)cc1 (stereo not drawn) [compound 600] | A (From 80% to 100%) | A (100%) | A (From 80% to 100%)
27 | CC(C)OC(=O)NC(CNC(=O)c1ccc(Cl)c(Cl)c1)C(C)C (stereo not drawn) [compound 238] | A (From 80% to 100%) | A (100%) | A (From 80% to 100%)
28 | C=C(C)COC(=O)NC(CNC(=O)c1ccc(Cl)cc1)C(C)C (stereo not drawn) [compound 1213] | A (From 80% to 100%) | A (100%) | A (From 80% to 100%)
29 | CC(C)C(CNC(=O)c1ccc(Cl)cc1)NC(=O)OC(C)C(C)C (stereo not drawn) [compound 1228] | A (From 80% to 100%) | A (100%) | A (From 80% to 100%)
30 | CC(C)C(CNC(=O)c1ccc(Cl)cc1)NC(=O)OCc1cccs1 (stereo not drawn) [compound 1168] | A (From 80% to 100%) | A (100%) | A (From 80% to 100%)
31 | Cc1ccc(C(=O)NCC(NC(=O)Oc2ccccc2)C(C)C)cc1 (stereo not drawn) [compound 530] | A (From 80% to 100%) | A (100%) | A (From 80% to 100%)
32 | CC(C)OC(=O)NC(C(C)C)C(C)NC(=O)c1ccc(Cl)cc1 (stereo not drawn) [compound 247] | A (From 80% to 100%) | A (100%) | A (From 80% to 100%)
33 | CC(C)COC(=O)NC(CNC(=O)c1ccc(Cl)cc1)C(C)C (stereo not drawn) [compound 384] | A (From 80% to 100%) | A (100%) | A (From 80% to 100%)
34 | CSCCOC(=O)NC(CNC(=O)c1ccc(Cl)cc1)C(C)C (stereo not drawn) [compound 1258] | A (From 80% to 100%) | A (100%) | A (From 80% to 100%)
35 | C=C(C)COC(=O)NC(CNC(=O)c1ccc(C)cc1)C(C)C (stereo not drawn) [compound 1216] | A (From 80% to 100%) | A (100%) | A (From 80% to 100%)
